# Test results from patent US20070281935A1, “Use” (PFIZER INC., priority 2004, published 2007).
# Columns and labels:
# Assay type in all cases: in vivo
# [1] = tested on: cows; experiment: Changes in blood non-esterified fatty acid (NEFA) concentrations in transition cows
# Experimental: (§1) To determine negative energy balance, serum concentrations of NEFAs or ketone bodies, or levels of triglycerides in liver tissues, are measured. Higher than ‘normal’ levels of NEFA's and/or triglycerides and/or ketone bodies are indicators of negative energy balance. Levels considered ‘higher than normal’ or ‘excessive’ are: • NEFA's >800 μmol/L in serum. • Triglycerides >10% w/w in liver tissue. • Ketone bodies […] in serum. Determination of Changes in Blood Non-Esterified Fatty Acid (NEFA) Concentrations and Liver Triglycerides Levels:
# (§2) Compounds were administered once or several times in the transition period at dose levels predicted to be effective by comparing results of in-vitro receptor affinity tests in laboratory species and pharmacokinetic evaluations in cattle. NEFA levels were determined via standard laboratory methods, for example, using the commercial WAKO NEFA kit (Wako Chemical Co., USA, Dallas, Tex., 994-75409), and liver triglyceride content was determined using the method as described in the literature (J. K. Drackley, J. J. Veenhuizen, M. J. Richard and J. W. Young, J Dairy Sci, 1991, 74, 4254)). […]
# (§3) As soon as possible post-calving (˜30 minutes) the cow was transferred to the freestall barn for the next scheduled milking (6:00 hrs and 19:00 hrs). […] Pre and post-calving NEFA samples were analyzed using the WAKO NEFA-C test kit (#994-75409). […]
# [2] = tested on: cows; experiment: Liver triglyceride levels in transition cows (post-calving liver biopsies); details: all treatment regimens (0.5 mg/kg); Days 5, 10 and 14 postcalving
# Experimental: as §1, §2, §3
# [3] = tested on: Holstein cows; experiment: Milk yield and milk quality study in pregnant, non-lactating Holstein cows; details: approximately 0.5 mg/kg subcutaneous on day of calving and day five post-calving
# Experimental: Machines to assay for milk protein, fat, or lactose content are commercially available (MilkoScan™ 50, MilkoScan™ 4000, MilkoScan™ FT 6000 available from Foss Group). Machines to assay for somatic cell content are also commercially available (Fossomatic™ FC, Fossomatic™ Minor available from Foss Group).
# One hundred twenty four pregnant, non-lactating Holstein cows were allocated to two treatment groups (placebo and COMPOUND at approximately 0.5 mg/kg). Animals were allowed to calve, treated by subcutaneous injection on the day of calving and on day five post-calving. Disease events and daily milk production were recorded for the following sixty days. The average daily milk yield in the treated cows was increased from 41.8 to 43.2 kg/day (p=0.052). There was also a significant beneficial effect on milk quality (increased protein and lactose yield, decreased somatic cell count). Results are shown in the FIG. 3 and FIG. 4, where COMPOUND represents Compound Z.
# [4] = versus placebo, significant beneficial effect
smiles,measurement,setting,value
"CC(C)(Oc1cccc([C@@H]2CCCN(C(=O)OCc3ccc(C(F)(F)F)cc3)C2)c1)C(=O)O [Compound Z, (3S)-3-[3-(1-Carboxy-1-methyl-ethoxy)-phenyl]-piperidine-1-carboxylic acid 4-trifluoromethyl-benzyl ester]",serum NEFA levels as compared to controls,"[1]; all animals treated with Compound Z (T02, T03, T04; 0.5 mg/kg), from Day 1 (after calving) until Day 6 of the study",significantly lower
same,serum NEFA levels compared to controls,"[1]; treatment group T03 (0.5 mg/kg at calving and post partum eod 4 doses), all timepoints",significantly lower
same,liver triglyceride levels compared to placebo,[2],significantly lowered
same,average daily milk yield,"[3]; sixty days recording, placebo 41.8, p=0.052",43.2 kg/day
same,milk quality: lactose yield,[3]; [4],increased
same,milk quality: protein yield,[3]; [4],increased
same,milk quality: somatic cell count,[3]; [4],decreased
